Experimental data: patent US20150038545A1, “HYDROXYPHENYL PYRROLE COMPOUNDS CONTAINING AN HYDROXAMIC ACID AS HDAC INHIBITORS AND MEDICINAL APPLICATIONS THEREOF” (UNIVERSIDAD DEL PAÍS VASCO, priority 2011, published 2015)

Columns and labels:
[1] = target: T1, Human HDAC5 (Homo sapiens, UniProt Q9UQL6); experiment: In vitro HDAC5 inhibition, fluorogenic peptide assay; type: biochemical; settings: for IC50: read-out: IC50 (nM) of enzyme activity HDAC5
T1 construct: Full length with Nterminal GST tag, MW=150 kDa; GST (N); purchased BioMol, Hamburg, Germany; host or cells: Sf9 cells, baculovirus
Method: (§1) All HDAC assays were performed using acetylated AMC-labeled peptide substrate: • Substrate for isoforms HDAC1, 2, 3, 4, 5, 6, 7, 9, 10, 11 and HeLa nuclear extract assays: Acetylated fluorogenic peptide from p53 residues 379-382 (RHKKAc) (BioMol. Cat. # KI-104). • Substrate for HDAC8 assays: Acetylated fluorogenic peptide from p53 residues 379-382 (RHKAcKAc) (BioMol. Cat. # KI-178).
(§2) Enzymes: • HDAC1 assay: 75 nM Human HDAC1 (GenBank Accession No. NM_004964): Full length with C-terminal GST tag, MW=79.9 kDa, expressed by baculovirus expression system in Sf9 cells (BioMol. Cat. # SE-456). • HDAC2 assay: 5 nM Human HDAC2 (GenBank Accession No. Q92769): Full length with C-terminal His tag, MW=60 kDa, expressed by baculovirus expression system in Sf9 cells (BioMol. Cat. # SE-500). • HDAC3 assay: 2.3 nM Human HDAC3/NcoR2 (GenBank Accession No. NM_003883 for HDAC3, GenBank Accession No.NM_006312 for NcoR2): Complex of human HDAC3, full length with C-terminal His tag, MW=49.7 kDa, and human NCOR2, N-terminal GST tag, MW=39 kDa, co-expressed in baculovirus expression system (BioMol. Cat. # SE-507). • HDAC4 assay: 266 nM Human HDAC4 (GenBank Accession No. NM_006037): Amino acids 627-1085 with N-terminal GST tag, MW=75.2 kDa, expressed in baculovirus expression system (BioMol, Hamburg, Germany). • HDAC5 assay: 588 nM Human HDAC5 (GenBank Accession No. NM_001015053): Full length with Nterminal GST tag, MW=150 kDa, expressed by baculovirus expression system in Sf9 cells (BioMol, Hamburg, Germany). • HDAC6 assay: 13 nM Human HDAC6 (GenBank Accession No. BC069243): Full length with N-terminal GST tag, MW=159 kDa, expressed by baculovirus expression system in Sf9 cells (BioMol. Cat. # SE-508). • HDAC7 assay: 962 nM Human HDAC7 (GenBank Accession No. AY302468): Amino acids 518-end with N-terminal GST tag, MW=78 kDa, expressed in baculovirus expression system (BioMol, Hamburg, Germany). • HDAC8 assay: 119 nM Human HDAC8 (GenBank Accession No. NM018486): Full length, MW=42 kDa, expressed in an E. coli expression system (BioMol. […]
(§3) The reactions were carried out in a 96-well microplate for fluorometry in a 50 μl reaction volume. […] The reaction was allowed to develop for 45 minutes at 30° C. with 5% CO2; then the fluorescent signal was measured with an excitation wavelength at 360 nm and an emission wavelength at 460 nm in a microplate-reading fluorometer (GeminiXS; Molecular Devices, Sunnyvale, Calif.). […] IC50 was calculated by fitting the experimental data to a dose-response curve. […]

[2] = target: T2, Human HDAC9 (Homo sapiens, UniProt Q9UKV0); experiment: In vitro HDAC9 inhibition, fluorogenic peptide assay; type: biochemical; settings: for IC50: read-out: IC50 (nM) of enzyme activity HDAC9
T2 construct: Amino acids 604-1066 with C-terminal His tag, MW=50.7 kDa; His (C); purchased BioMol, Hamburg, Germany
Method: as §1, §2, §3

[3] = tested on: HT-1080; experiment: Cancer cell growth inhibition (CellTiter-Glo), HT-1080; type: cell-based; settings: Homo sapiens; Fibrosarcoma, HT-1080, 72 h treatment
Method: (§4) Cell culture-based assays were used to evaluate the ability of compounds of the invention to inhibit cancer cell growth.
(§5) Cells were obtained from the American Type Culture Collection (ATCC). Cells were cultured at 37° C. with 5% CO2 in the appropriate growth medium (see table below), and harvested respectively during the logarithmic growth period and counted with hemocytometer. The cell viability was examined by trypan blue exclusion. Cell concentrations were adjusted to 5.56×10^4 cells/ml with respective medium.
(§6) Stock solutions of test compounds and positive drugs Doxorubicin (Zhejiang, Haizheng, China), Cisplatin (Nanjing Zhiyao, China) and Mitomycin (Zhejiang, Haizheng, China) were prepared in dimethyl sulphoxide (DMSO) or PBS at 20 mM.
(§7) In order to determine the IC50 for each compound, experiments were carried out in 96-well plates and the cell lines seeded at a density of 5,000 cells/well. […] All treatments were performed in triplicate. 10 μl of drug solution was added to each well and incubated for 72 hours. At the end of the incubation, 100 μl of the CellTiter-Glo Reagent were added to each well and the contents were mixed for 2 munites on an orbital shaker to induce cell lysis. The plate was incubated at room temperature for 10 minutes to stabilize luminiscent signal, and luminiscent was recorded. […] In order to calculate IC50 values, dose-responsive curves were fitted using nonlinear regression model with a sigmoidal dose response.

[4] = tested on: SK-MEL-5; experiment: Cancer cell growth inhibition (CellTiter-Glo), SK-MEL-5; type: cell-based, Human; settings: Homo sapiens; Melanoma, SK-MEL-5, 72 h treatment
Method: as §4, §5, §6, §7

[5] = tested on: MCG803; experiment: Cancer cell growth inhibition (CellTiter-Glo), MCG803; type: cell-based, Human; settings: Homo sapiens; Gastric Cancer, MCG803, 72 h treatment
Method: as §4, §5, §6, §7

T1 sequence (Q9UQL6 1-1123 isoform Q9UQL6-3): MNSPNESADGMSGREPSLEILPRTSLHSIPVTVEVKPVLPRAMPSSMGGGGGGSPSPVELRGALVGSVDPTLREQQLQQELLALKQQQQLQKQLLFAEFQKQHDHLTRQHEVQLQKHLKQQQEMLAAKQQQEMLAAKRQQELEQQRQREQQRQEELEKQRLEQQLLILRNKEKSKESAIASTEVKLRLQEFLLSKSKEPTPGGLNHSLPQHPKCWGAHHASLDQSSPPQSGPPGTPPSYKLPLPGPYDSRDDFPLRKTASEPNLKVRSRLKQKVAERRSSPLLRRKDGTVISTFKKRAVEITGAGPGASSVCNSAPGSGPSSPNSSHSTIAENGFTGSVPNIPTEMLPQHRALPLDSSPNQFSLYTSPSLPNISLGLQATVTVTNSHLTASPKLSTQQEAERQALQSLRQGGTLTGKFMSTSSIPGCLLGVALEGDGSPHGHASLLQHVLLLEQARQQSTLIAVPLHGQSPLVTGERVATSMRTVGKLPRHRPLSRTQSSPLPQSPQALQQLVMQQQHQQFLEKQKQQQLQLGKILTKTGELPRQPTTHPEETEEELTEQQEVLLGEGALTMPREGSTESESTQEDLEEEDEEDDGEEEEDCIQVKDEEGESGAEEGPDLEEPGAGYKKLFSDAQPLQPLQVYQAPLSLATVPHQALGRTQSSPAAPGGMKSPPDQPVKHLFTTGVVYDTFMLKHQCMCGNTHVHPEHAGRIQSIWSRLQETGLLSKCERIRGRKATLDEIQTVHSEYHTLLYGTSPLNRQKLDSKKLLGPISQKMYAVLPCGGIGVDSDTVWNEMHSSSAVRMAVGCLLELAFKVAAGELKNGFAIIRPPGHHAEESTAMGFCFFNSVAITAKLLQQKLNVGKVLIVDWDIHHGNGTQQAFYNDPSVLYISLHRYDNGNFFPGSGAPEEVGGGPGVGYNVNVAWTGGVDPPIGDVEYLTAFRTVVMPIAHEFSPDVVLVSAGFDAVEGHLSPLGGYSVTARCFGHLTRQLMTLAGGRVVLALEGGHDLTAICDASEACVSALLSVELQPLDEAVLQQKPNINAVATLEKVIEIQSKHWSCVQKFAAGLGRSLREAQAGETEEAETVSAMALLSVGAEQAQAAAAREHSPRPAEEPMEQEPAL
T2 sequence (Q9UKV0 604-1066 isoform Q9UKV0-7): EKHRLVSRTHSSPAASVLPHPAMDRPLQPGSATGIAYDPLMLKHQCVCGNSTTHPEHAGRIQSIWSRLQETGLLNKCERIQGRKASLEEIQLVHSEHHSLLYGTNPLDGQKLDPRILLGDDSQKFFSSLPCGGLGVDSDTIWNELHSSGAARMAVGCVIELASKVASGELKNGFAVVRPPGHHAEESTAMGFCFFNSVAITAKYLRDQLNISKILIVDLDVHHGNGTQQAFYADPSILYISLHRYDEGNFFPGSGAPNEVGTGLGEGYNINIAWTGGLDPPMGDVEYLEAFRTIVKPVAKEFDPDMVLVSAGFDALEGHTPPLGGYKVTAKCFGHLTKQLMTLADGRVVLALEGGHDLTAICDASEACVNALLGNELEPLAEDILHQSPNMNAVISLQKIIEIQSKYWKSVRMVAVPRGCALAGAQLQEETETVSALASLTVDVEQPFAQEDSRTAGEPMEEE

## COc1ccc(-c2cc(-c3ccccc3)[nH]c2C(=O)NCCCCCC(=O)NO)cc1 [Compound A, N-[6-(hydroxyamino)-6-oxohexyl]-3-(4-methoxyphenyl)-5-phenyl-1H-pyrrole-2-carboxamide, reference compound]
[1]; IC50 HDAC5/IC50 HDAC6
  Selectivity against HDAC6 (IC50 HDACx/IC50 HDAC6) HDAC5: 32.7
[1]
  IC50: 655 nM
[2]; IC50 HDAC9/IC50 HDAC6
  Selectivity against HDAC6 (IC50 HDACx/IC50 HDAC6) HDAC9: 38.4
[2]
  IC50: 768 nM

## O=C(CCCCCNC(=O)c1[nH]c(-c2ccc(O)cc2)cc1-c1ccccc1)NO [Example 2, N-(6-(hydroxyamino)-6-oxohexyl)-5-(4-hydroxyphenyl)-3-phenyl-1H-pyrrole-2-carboxamide]
[3]
  IC50: 3.24 µM
[4]
  IC50: 1.87 µM
[5]
  IC50: 3.08 µM

## O=C(CCCCCNC(=O)c1[nH]c(-c2ccccc2)cc1-c1ccc(O)cc1)NO [Example 1, N-(6-(hydroxyamino)-6-oxohexyl)-3-(4-hydroxyphenyl)-5-phenyl-1H-pyrrole-2-carboxamide]
[3]
  IC50: 3 µM
[4]
  IC50: 1.28 µM
[5]
  IC50: 1.11 µM

## O=C(CCCCCNC(=O)c1[nH]c(-c2ccc(O)cc2)cc1-c1ccsc1)NO [Example 6, N-(5-(hydroxycarbamoyl)pentyl)-5-(4-hydroxyphenyl)-3-(3-thienyl)-1H-pyrrole-2-carboxamide]
[1]
  IC50: 43 nM
[2]
  IC50: 80 nM
[3]
  IC50: 3.1 µM
[4]
  IC50: 1.02 µM
[5]
  IC50: 2.82 µM

## O=C(CCCCCNC(=O)c1[nH]c(-c2ccc(O)cc2)cc1-c1ccoc1)NO [Example 5, 3-(3-furyl)-N-(5-(hydroxycarbamoyl)pentyl)-5-(4-hydroxy-phenyl)-1H-pyrrole-2-carboxamide]
[1]
  IC50: 14 nM
[2]
  IC50: 27 nM
[3]
  IC50: 3.12 µM
[4]
  IC50: 0.82 µM
[5]
  IC50: 2.61 µM
